In US4550186A, “Binuclear copper (II) carboxylates formed from amine-carboxyboranes” (Duke University, priority 1983, dated 1985):

Tests used:
[1] = biological target: T1, Acetyl CoA Carboxylase (Mus musculus, UniProt Q5SWU9); experiment: In vivo liver enzyme study: acetyl CoA carboxylase; settings: CF1 liver after 16 days i.p.
T1 construct: 10% homogenates of CF1 male mouse liver; from tissue; host or cells: CF1 male mouse liver, 10% homogenate
Method: In vitro enzymatic studies were determined using 10% homogenates of CF1 male mouse liver with 50-200 μM of test drugs. In vivo enzymatic studies were determined using 10% homogenates of liver from CF1 male mice obtained after administering the agents for 16 days at a dose ranging from 2.5-20 mg/kg/day intraperitoneally. The liver homogenates for both in vitro and in vivo studies were prepared in 0.25M sucrose and 0.001M (ethylenedinitrilo)tetraacetic acid. Acetyl coenzyme A synthetase and adenosine triphosphate dependent citrate lyase activities were determined spectrophotometrically at 540 nm as the hydroxylamate of acetyl coenzyme A formed after 30 min at 37° C. Mitochondrial citrate exchange was determined by the procedure of Robinson et al [Eur. J. Biochem., 216, 63 (1970)] using ^14 C-sodium bicarbonate (41 mCi/mmol) incorporated into mitochondrial ^14 C-citrate after isolating rat mitochondria (9000 g×10 min) from the homogenates. The exchanges of the ^14 C-citrate were determined after incubating the mitochondrial fraction which was loaded with labeled citrate and test drugs for 10 min. Then the radioactivity was measured in the mitochondrial and supernantant fractions in scintillation fluid and expressed as a percentage. Cholesterol side chain oxidation was determined by the method of Kritchevsky and Tepper [Artherosclerosis, 18, 93 (1973)] using (26-^14 C) cholesterol (50 mCi/mmol) and mitochondria isolated from rat liver homogenates. […] Fatty acid synthetase activity was determined by the method of Brady et al [J. Biol. Chem., 235, 3093 (1960)] using [2-^14 C] malonyl-coenzyme A (37.5 mCi/mmol) which was incorporated into newly synthesized fatty acids that were extracted with ether and counted. Acyl transferase activity was determined with glycerol-3phosphate [L-2-^3 H(N)] […] HCl and counted. Phosphatidate phosphohydrolase activity was measured as the inorganic phosphate released after 30 min from phosphatidic acid by the method of Mavis et al [J. Lipid Res., 19, 467 (1978)]. […]

[2] = biological target: T2, carbamyl phosphate synthetase (Mus musculus, UniProt B2RQC6); experiment: In vitro carbamyl phosphate synthetase activity; format: biochemical; settings: 0.25 to 1.0 mM
T2 construct: CPSase II domain of CAD; ornithine transcarbamylase used as coupling enzyme
T2 sequence (B2RQC6 2-2225): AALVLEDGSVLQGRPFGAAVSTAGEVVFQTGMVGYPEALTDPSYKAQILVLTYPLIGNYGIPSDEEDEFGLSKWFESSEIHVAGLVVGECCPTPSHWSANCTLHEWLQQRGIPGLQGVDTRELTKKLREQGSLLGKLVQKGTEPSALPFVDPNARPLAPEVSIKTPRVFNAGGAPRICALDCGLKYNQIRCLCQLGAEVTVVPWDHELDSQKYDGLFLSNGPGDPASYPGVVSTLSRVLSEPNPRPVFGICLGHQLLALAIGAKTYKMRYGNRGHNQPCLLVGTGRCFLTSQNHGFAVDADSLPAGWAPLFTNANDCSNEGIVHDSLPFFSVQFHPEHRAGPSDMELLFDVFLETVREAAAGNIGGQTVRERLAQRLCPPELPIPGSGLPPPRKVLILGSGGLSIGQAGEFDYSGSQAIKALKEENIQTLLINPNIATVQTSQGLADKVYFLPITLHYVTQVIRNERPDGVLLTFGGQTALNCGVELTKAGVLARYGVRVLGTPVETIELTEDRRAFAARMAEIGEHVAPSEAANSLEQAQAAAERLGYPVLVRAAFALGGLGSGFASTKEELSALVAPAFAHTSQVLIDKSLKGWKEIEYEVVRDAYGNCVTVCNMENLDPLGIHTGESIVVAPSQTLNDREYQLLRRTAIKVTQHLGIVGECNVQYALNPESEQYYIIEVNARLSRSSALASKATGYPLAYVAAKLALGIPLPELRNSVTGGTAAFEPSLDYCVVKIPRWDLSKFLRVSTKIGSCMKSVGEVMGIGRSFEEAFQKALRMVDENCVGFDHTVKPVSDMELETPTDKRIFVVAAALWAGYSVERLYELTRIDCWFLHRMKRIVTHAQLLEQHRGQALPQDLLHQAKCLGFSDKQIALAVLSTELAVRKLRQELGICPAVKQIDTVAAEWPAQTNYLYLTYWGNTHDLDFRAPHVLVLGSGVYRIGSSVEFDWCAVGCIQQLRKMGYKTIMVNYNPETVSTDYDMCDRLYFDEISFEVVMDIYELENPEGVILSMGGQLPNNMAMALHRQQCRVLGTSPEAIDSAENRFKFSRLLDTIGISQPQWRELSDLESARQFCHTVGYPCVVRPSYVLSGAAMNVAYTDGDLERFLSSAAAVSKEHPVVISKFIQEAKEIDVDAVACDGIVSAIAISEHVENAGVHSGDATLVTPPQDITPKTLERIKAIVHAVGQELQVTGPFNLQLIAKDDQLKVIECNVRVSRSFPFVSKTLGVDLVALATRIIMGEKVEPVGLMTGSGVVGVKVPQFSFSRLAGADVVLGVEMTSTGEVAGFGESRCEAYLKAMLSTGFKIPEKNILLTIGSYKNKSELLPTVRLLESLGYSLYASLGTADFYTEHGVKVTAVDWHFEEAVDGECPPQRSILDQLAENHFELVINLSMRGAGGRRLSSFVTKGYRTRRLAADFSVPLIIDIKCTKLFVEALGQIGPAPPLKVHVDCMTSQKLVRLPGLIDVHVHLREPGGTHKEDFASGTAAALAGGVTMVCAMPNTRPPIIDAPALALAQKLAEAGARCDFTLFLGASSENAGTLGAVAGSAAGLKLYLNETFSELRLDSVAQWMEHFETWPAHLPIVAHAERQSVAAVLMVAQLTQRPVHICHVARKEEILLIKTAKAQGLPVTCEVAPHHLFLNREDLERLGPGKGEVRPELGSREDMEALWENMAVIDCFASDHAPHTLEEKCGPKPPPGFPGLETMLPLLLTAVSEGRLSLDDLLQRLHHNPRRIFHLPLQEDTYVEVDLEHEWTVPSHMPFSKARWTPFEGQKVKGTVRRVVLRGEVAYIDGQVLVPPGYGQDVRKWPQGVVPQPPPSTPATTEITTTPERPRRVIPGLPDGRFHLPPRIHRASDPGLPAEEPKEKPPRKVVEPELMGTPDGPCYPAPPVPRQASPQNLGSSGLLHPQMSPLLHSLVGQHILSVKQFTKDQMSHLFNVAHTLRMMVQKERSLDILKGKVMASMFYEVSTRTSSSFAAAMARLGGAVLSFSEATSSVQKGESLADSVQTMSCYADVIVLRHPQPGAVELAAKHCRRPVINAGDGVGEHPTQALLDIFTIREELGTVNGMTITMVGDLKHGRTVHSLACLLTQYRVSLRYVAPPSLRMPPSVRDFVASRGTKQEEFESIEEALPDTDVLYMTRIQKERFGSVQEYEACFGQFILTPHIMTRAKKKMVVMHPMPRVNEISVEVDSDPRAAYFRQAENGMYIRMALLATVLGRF
Method: CF1 male mice (~30 g) were implanted with 2×10^6 Ehrlich ascites tumor cells, intraperitoneally on Day 0. Compound I was suspended by homogenation in 0.05% polysorbate.80-water and administered intraperitoneally at 10 and 20 mg/kg for 9 days to determine its effectiveness for inhibition of tumor growth. Mice were sacrificed on Day 10, and the ascites fluid was collected from the peritoneal cavity. The volume and ascrit (packed cell volume) were determined for each animal and the percent inhibition of tumor growth was calculated. For the metabolic studies, mice were treated on Days 8 and 9 with 10 mg/kg of Compound I, intraperitoneally. […]
Carbamyl phosphate synthetase activity was determined using the reaction medium of Kalman et al [Am. […] Citrulline formed from ornithine was measured at 490 nm by the method of Archibald [J. Biol. Chem., 156, 121 (1944)]. […] The ^14 CO2 generated in 15 min was trapped in 1M KOH and counted. Thymidylate synthetase activity was determined using a post-mitochondrial supernatant (9000 g×10 min) and 5 μCi of 5-^3 H-deoxyuridine monophosphate (14 Ci/mmol) according to the method of Kampf et al [ J. Med. Chem., 19, 903 (1976)]. ^14 C-Formate incorporation into purines was determined by the method of Spassova et al [Biochem. Pharmacol., 25, 923 (1976)] using 0.5 μCi of ^14 C-formic acid (52.0 mCi/mmol). […] The Rf value for xanthine monophosphate was scraped and counted. […]

{Cu[(CH3)3 N.BH2 CO2 ]2.(CH3)3 N.BH2 COOH} [Compound I]
Acetyl CoA Carboxylase ([1]; 2.5 mg/kg): 103 ± 6% of control | Acetyl CoA Carboxylase ([1]; 5.0 mg/kg): 95% of control | Acetyl CoA Carboxylase ([1]; 10 mg/kg): 120 ± 7% of control | carbamyl phosphate synthetase inhibition [2]: not inhibited
